Data: ChEMBL document CHEMBL1139753, “Synthesis, in vitro and in vivo cytotoxicity of 6,7-diaryl-2,3,8,8a-tetrahydroindolizin-5(1H)-ones” (Bioorg Med Chem Lett, 2007)

These compounds were tested on HCT-116 (assay: Cytotoxicity against HCT116 cells after 48 hrs). Conditions: Homo sapiens, HCT-116, 48 h.
Type: functional, cell-based
COc1ccc(C2=C(c3ccc(OC)cc3)C(=O)N3CCCC3C2)cc1 (stereo not given) gave an IC50 of 3.2 µM.
COc1ccc(C2=C(c3ccc(C)cc3)C(=O)N3CCCC3C2)cc1 (stereo not given) showed an IC50 of 10 µM.
COc1ccc(C2=C(c3cccc(Cl)c3)C(=O)N3CCCC3C2)cc1 (stereo not given) was tested, and the IC50 was 8 µM.
With COc1ccc(C2=C(c3ccc(N=[N+]=[N-])cc3)C(=O)N3CCCC3C2)cc1 (stereo not given) the IC50 was 25 µM.
Work on O=C1C(c2ccccc2)=C(c2ccc(OCc3ccccc3)cc2)CC2CCCN12 (stereo not given) yielded an IC50 of 8.9 µM.
COc1ccc(C2=C(c3ccc(OC)c(OC)c3)C(=O)N3CCCC3C2)cc1 (stereo not given) gave an IC50 of 5 µM.
In the case of COc1ccc(C2=C(c3ccc(OC)c(OC)c3)C(=O)N3CCCC3C2)cc1OC (stereo not given), the IC50 is reported as > 10 µM.
Compound O=C1N[C@H]2[C@H](CS[C@H]2CCCCC(=O)OC(=O)CCCCCNOc2ccc(C3=C(c4ccccc4)C(=O)N4CCCC4C3)cc2)N1 (stereo not given in full) has an IC50 of 17 µM.
COc1ccc(C2=C(c3ccccc3)C(=O)N3CCCC3C2)cc1 (stereo not given) was tested, and the IC50 was 0.39 µM.
Work on COc1ccc(C2=C(c3ccccc3Cl)C(=O)N3CCCC3C2)cc1 (stereo not given) yielded an IC50 of 8 µM.
O=C1C(c2ccccc2)=C(c2ccc(O)cc2)CC2CCCN12 (stereo not given) was tested, and the IC50 was 9 µM.
In the case of COc1ccc(C2=C(c3ccc(Cl)cc3)C(=O)N3CCCC3C2)cc1 (stereo not given), the IC50 is reported as 13 µM.
In the case of COc1ccc(C2=C(c3cccc(N)c3)C(=O)N3CCCC3C2)cc1 (stereo not given), the IC50 is reported as > 25 µM.
COc1ccc(C2=C(c3cc(OC)c(OC)c(OCc4ccccc4)c3)CC3CCCN3C2=O)cc1OC (stereo not given) showed an IC50 of 3.3 µM.
With COc1ccc(C2=C(c3ccc(Cl)c(Cl)c3)C(=O)N3CCCC3C2)cc1 (stereo not given) the IC50 was 4 µM.
